One series deals with FXR. Description: FXR signaling in mice: CYP7A1 (liver) and FGF-15 (ileum) expression.
Another series addresses T1, human FXR (Homo sapiens, UniProt Q96RI1).
T1 sequence (Q96RI1 262-486 limits assumed): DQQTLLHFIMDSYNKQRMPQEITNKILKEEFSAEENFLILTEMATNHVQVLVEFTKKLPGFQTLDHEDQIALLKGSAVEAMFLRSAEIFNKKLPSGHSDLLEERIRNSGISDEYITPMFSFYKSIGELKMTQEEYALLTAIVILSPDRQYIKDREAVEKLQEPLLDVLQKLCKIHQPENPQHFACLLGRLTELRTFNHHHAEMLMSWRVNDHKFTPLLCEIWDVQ
The following applies: in the presence of 50 uM CDCA.

The structures appear in SMILES notation.

Protocol for human FXR: FXR reporter cell assays were performed by Indigo Biosciences as directed by Seres Therapeutics using Indigo's FXR reporter CHO cell line, which expresses an FXR receptor hybrid in which the native N-terminal DNA binding domain (DBD) has been replaced with that of a yeast Gal4 DBD. The reporter gene, firefly luciferase, is functionally linked to a Gal4 upstream activation sequence (UAS). […] Luminescence was determined following incubation with substrate and a detection reagent. In addition, live cell count was determined within the assay using a Live Cell Multiplex (LCM) Assay (Indigo Biosciences).

On to `CC[C@H]1[C@@H](O)[C@@H]2[C@H](CC[C@]3(C)[C@@H]([C@H](C)CCC(=O)O)CC[C@@H]23)[C@@]2(C)CC[C@@H](O)C[C@@H]12` [OCA, obeticholic acid], for which, in the series on FXR, the “CYP7A1 expression (liver)” value was “dose dependent decrease in CYP7A1 expression” and the “FGF-15 levels (ileum)” value is on record as “increase in FGF-15 levels”.
For `C[C@H](CCC(=O)O)[C@H]1CC[C@H]2[C@@H]3[C@H](O)C[C@@H]4C[C@H](O)CC[C@]4(C)[C@H]3C[C@H](O)[C@]12C` [cholic acid] the same measures were “decreased CYP7A1 expression” and “increased FGF-15 levels in the ileum”.
As to `C[C@H](CCC(=O)O)[C@H]1CC[C@H]2[C@@H]3[C@H](O)[C@H](O)[C@@H]4C[C@H](O)CC[C@]4(C)[C@H]3CC[C@]12C` [HCA, hyocholic acid], the “hFXR activation in combination with CDCA” value at human FXR was “activated human FXR in a dose-dependent and synergistic manner”.

(Values after patent US11701394B2, “Compositions and methods for treating cholestatic disease” (Seres Therapeutics, Inc., priority 2017, dated 2023).)
